According to US7807676B2, “Diketo-Piperazine and Piperidine derivatives as antiviral agents” (priority 2006, dated 2010):
Counter-ions that a name gives are not always drawn.

test system: HIV-1 single-round infectious reporter virus; experiment: Single-round infectious HIV-1 luciferase reporter virus infection of HeLa CD4 cells (antiviral EC50); format: cell-based; conditions: Human immunodeficiency virus 1, HeLa, read-out: EC50 Group from Table 3
Description: • Virus production—Human embryonic Kidney cell line, 293T, was propagated in Dulbecco's Modified Eagle Medium (Invitrogen, Carlsbad, Calif.) containing 10% fetal Bovine serum (FBS, Sigma, St. Louis, Mo.). • Virus infection—Human epithelial cell line, HeLa, expressing the HIV-1 receptor CD4 was propagated in Dulbecco's Modified Eagle Medium (Invitrogen, Carlsbad, Calif.) containing 10% fetal Bovine serum (FBS, Sigma, St. Louis, Mo.) and supplemented with 0.2 mg/mL Geneticin (Invitrogen, Carlsbad, Calif.). Virus-Single-round infectious reporter virus was produced by co-transfecting human embryonic Kidney 293 cells with an HIV-1 envelope DNA expression vector and a proviral cDNA containing an envelope deletion mutation and the luciferase reporter gene inserted in place of HIV-1 nef sequences (Chen et al, Ref. 41). Transfections were performed using lipofectAMINE PLUS reagent as described by the manufacturer (Invitrogen, Carlsbad, Calif.). Experiment • 1. HeLa CD4 cells were plated in 96 well plates at a cell density of 1×10^4 cells per well in 100 μl Dulbecco's Modified Eagle Medium containing 10% fetal Bovine serum and incubated overnight. • 2. Compound was added in a 2 μl dimethylsulfoxide solution, so that the final assay concentration would be ≦10 μM. • 3. 100 μl of single-round infectious reporter virus in Dulbecco's Modified Eagle Medium was then added to the plated cells and compound at an approximate multiplicity of infection (MOI) of 0.01, resulting in a final volume of 200 μl per well. • 4. Virally-infected cells were incubated at 37 degrees Celsius, in a CO2 incubator, and harvested 72 h after infection. • 5. Viral infection was monitored by measuring luciferase expression from viral DNA in the infected cells using a luciferase reporter gene assay kit, as described by the manufacturer (Roche Molecular Biochemicals, Indianapolis, Ind.). Infected cell supernatants were removed and 50 μl of lysis buffer was added per well. After 15 minutes, 50 μl of freshly-reconstituted luciferase assay reagent was added per well. Luciferase activity was then quantified by measuring luminescence using a Wallac microbeta scintillation counter. • 6. The percent inhibition for each compound was calculated by quantifying the level of luciferase expression in cells infected in the presence of each compound as a percentage of that observed for cells infected in the absence of compound and subtracting such a determined value from 100. • 7. An EC50 provides a method for comparing the antiviral potency of the compounds of this disclosure. The effective concentration for fifty percent inhibition (EC50) was calculated with the Microsoft Excel Xlfit curve fitting software. For each compound, curves were generated from percent inhibition calculated at 10 different concentrations by using a four parameter logistic model (model 205). Table 3 is the key for the data in Table 4. Results

`COc1cnc(-n2cnc(C)n2)c2[nH]cc(C(=O)C(=O)N3CCN(c4ncccc4C(O)c4nccs4)CC3)c12` (stereo not shown) [A-66] and `CCc1ncn(-c2ncc(OC)c3c(C(=O)C(=O)N4CCN(c5ncccc5C(=O)c5nccs5)CC4)c[nH]c23)n1` [A-68] cannot be ordered by EC50: less than 500 nM for the first, less than 500 nM for the second.

`O=C(c1nccs1)c1cccnc1N1CCN(C(=O)C(=O)c2c[nH]c3cccc(F)c23)CC1` [A-67] and `CC(=O)Nc1ncc(F)c2c(C(=O)C(=O)N3CCN(c4nnnn4-c4ccccc4)CC3)c[nH]c12` [B-18, N-(4-fluoro-3-(2-oxo-2-(4-(1-phenyl-1H-tetrazol-5-yl)piperazin-1-yl)acetyl)-1H-pyrrolo[2,3-c]pyridin-7-yl)acetamide] cannot be ordered by EC50: greater than 500 nM for the first, greater than 500 nM for the second.

`CCc1ncn(-c2ncc(OC)c3c(C(=O)C(=O)N4CCN(c5nnnn5-c5ccccn5)CC4)c[nH]c23)n1` [A-69] and `CCc1ncn(-c2ncc(OC)c3c(C(=O)C(=O)N4CCN(c5nnnn5-c5ccccc5)CC4)c[nH]c23)n1` [A-70] cannot be ordered by EC50: less than 500 nM for the first, less than 500 nM for the second.

`O=C(C(=O)N1[C@@H]2CC[C@H]1CN(c1nnnn1-c1ccccc1)C2)c1c[nH]c2c(-n3ccnn3)ncc(F)c12` [A-71] and `O=C(C(=O)N1C[C@@H]2CC[C@H]1CN2c1nnnn1-c1ccccc1)c1c[nH]c2c(-n3ccnn3)ncc(F)c12` [A-72] cannot be ordered by EC50: less than 500 nM for the first, less than 500 nM for the second.

Compared with `COc1cnc(-n2cnc(C)n2)c2[nH]cc(C(=O)C(=O)N3[C@H](C)CN(c4nnnn4-c4ccccc4)C[C@@H]3C)c12` [A-73], `O=C(C(=O)N1C[C@@H]2C[C@H]1CN2c1nnnn1-c1ccccc1)c1c[nH]c2c(-n3ccnn3)ncc(F)c12` [A-74] is higher in EC50: less than 500 nM for the first, greater than 500 nM for the second.

`Cc1ccnn1-c1ncc(F)c2c(C(=O)C(=O)N3CCN(c4nnnn4-c4ccccc4)CC3)c[nH]c12` [B-3, 1-(4-fluoro-7-(5-methyl-1H-pyrazol-1-yl)-1H-pyrrolo[2,3-c]pyridin-3-yl)-2-(4-(1-phenyl-1H-tetrazol-5-yl)piperazin-1-yl)ethane-1,2-dione] and `Nc1ccnn1-c1ncc(F)c2c(C(=O)C(=O)N3CCN(c4nnnn4-c4ccccc4)CC3)c[nH]c12` [B-5, 1-(7-(5-amino-1H-pyrazol-1-yl)-4-fluoro-1H-pyrrolo[2,3-c]pyridin-3-yl)-2-(4-(1-phenyl-1H-tetrazol-5-yl)piperazin-1-yl)ethane-1,2-dione] cannot be ordered by EC50: less than 500 nM for the first, less than 500 nM for the second.

`Nc1ccn(-c2ncc(F)c3c(C(=O)C(=O)N4CCN(c5nnnn5-c5ccccc5)CC4)c[nH]c23)n1` [B-4, 1-(7-(3-amino-1H-pyrazol-1-yl)-4-fluoro-1H-pyrrolo[2,3-c]pyridin-3-yl)-2-(4-(1-phenyl-1H-tetrazol-5-yl)piperazin-1-yl)ethane-1,2-dione] and `Nc1ncc(F)c2c(C(=O)C(=O)N3CCN(c4nnnn4-c4ccccc4)CC3)c[nH]c12` [B-17, 1-(7-amino-4-fluoro-1H-pyrrolo[2,3-c]pyridin-3-yl)-2-(4-(1-phenyl-1H-tetrazol-5-yl)piperazin-1-yl)ethane-1,2-dione] cannot be ordered by EC50: less than 500 nM for the first, less than 500 nM for the second.

`COc1cnc(-c2cc(C(=O)NCCO)[nH]n2)c2[nH]cc(C(=O)C(=O)N3CCN(c4nnnn4-c4ccccc4)CC3)c12` [B-8, N-(2-hydroxyethyl)-3-(4-methoxy-3-(2-oxo-2-(4-(1-phenyl-1H-tetrazol-5-yl)piperazin-1-yl)acetyl)-1H-pyrrolo[2,3-c]pyridin-7-yl)-1H-pyrazole-5-carboxamide.TFA] and `COc1cnc(-c2cc(C(=O)NCCOCCO)[nH]n2)c2[nH]cc(C(=O)C(=O)N3CCN(c4nnnn4-c4ccccc4)CC3)c12` [B-9, N-(2-(2-hydroxyethoxy)ethyl)-3-(4-methoxy-3-(2-oxo-2-(4-(1-phenyl-1H-tetrazol-5-yl)piperazin-1-yl)acetyl)-1H-pyrrolo[2,3-c]pyridin-7-yl)-1H-pyrazole-5-carboxamide.TFA] cannot be ordered by EC50: less than 500 nM for the first, less than 500 nM for the second.

`COc1cnc(-c2cc(C(=O)NCCCN3CCN(C)CC3)[nH]n2)c2[nH]cc(C(=O)C(=O)N3CCN(c4nnnn4-c4ccccc4)CC3)c12` [B-10, 3-(4-methoxy-3-(2-oxo-2-(4-(1-phenyl-1H-tetrazol-5-yl)piperazin-1-yl)acetyl)-1H-pyrrolo[2,3-c]pyridin-7-yl)-N-(3-(4-methylpiperazin-1-yl)propyl)-1H-pyrazole-5-carboxamide.TFA] and `COc1cnc(-c2cc(C(=O)NCCN3CCCC3)[nH]n2)c2[nH]cc(C(=O)C(=O)N3CCN(c4nnnn4-c4ccccc4)CC3)c12` [B-11, 3-(4-methoxy-3-(2-oxo-2-(4-(1-phenyl-1H-tetrazol-5-yl)piperazin-1-yl)acetyl)-1H-pyrrolo[2,3-c]pyridin-7-yl)-N-(2-(pyrrolidin-1-yl)ethyl)-1H-pyrazole-5-carboxamide.TFA] cannot be ordered by EC50: less than 500 nM for the first, less than 500 nM for the second.

`COc1cnc(-c2cc(C(=O)NCCc3ccncc3)[nH]n2)c2[nH]cc(C(=O)C(=O)N3CCN(c4nnnn4-c4ccccc4)CC3)c12` [B-12, 3-(4-methoxy-3-(2-oxo-2-(4-(1-phenyl-1H-tetrazol-5-yl)piperazin-1-yl)acetyl)-1H-pyrrolo[2,3-c]pyridin-7-yl)-N-(2-(pyridin-4-yl)ethyl)-1H-pyrazole-5-carboxamide.TFA] and `COc1cnc(-c2cc(C(=O)NCCN(C)C)[nH]n2)c2[nH]cc(C(=O)C(=O)N3CCN(c4nnnn4-c4ccccc4)CC3)c12` [B-16, N-(2-(dimethylamino)ethyl)-3-(4-methoxy-3-(2-oxo-2-(4-(1-phenyl-1H-tetrazol-5-yl)piperazin-1-yl)acetyl)-1H-pyrrolo[2,3-c]pyridin-7-yl)-1H-pyrazole-5-carboxamide.TFA] cannot be ordered by EC50: less than 500 nM for the first, less than 500 nM for the second.

`COc1cnc(-c2cc(C(=O)NCCN3CCOCC3)[nH]n2)c2[nH]cc(C(=O)C(=O)N3CCN(c4nnnn4-c4ccccc4)CC3)c12` [B-13, 3-(4-methoxy-3-(2-oxo-2-(4-(1-phenyl-1H-tetrazol-5-yl)piperazin-1-yl)acetyl)-1H-pyrrolo[2,3-c]pyridin-7-yl)-N-(2-morpholinoethyl)-1H-pyrazole-5-carboxamide.TFA] and `COc1cnc(-c2cc(C(=O)NCCN3CCNCC3)[nH]n2)c2[nH]cc(C(=O)C(=O)N3CCN(c4nnnn4-c4ccccc4)CC3)c12` [B-14, 3-(4-methoxy-3-(2-oxo-2-(4-(1-phenyl-1H-tetrazol-5-yl)piperazin-1-yl)acetyl)-1H-pyrrolo[2,3-c]pyridin-7-yl)-N-(2-(piperazin-1-yl)ethyl)-1H-pyrazole-5-carboxamide.TFA] cannot be ordered by EC50: less than 500 nM for the first, less than 500 nM for the second.

`COc1cnc(-c2cc(C(=O)NCCCN(C)C)[nH]n2)c2[nH]cc(C(=O)C(=O)N3CCN(c4nnnn4-c4ccccc4)CC3)c12` [B-15, N-(3-(dimethylamino)propyl)-3-(4-methoxy-3-(2-oxo-2-(4-(1-phenyl-1H-tetrazol-5-yl)piperazin-1-yl)acetyl)-1H-pyrrolo[2,3-c]pyridin-7-yl)-1H-pyrazole-5-carboxamide.TFA] and `CN(C)C(=O)Nc1ncc(F)c2c(C(=O)C(=O)N3CCN(c4nnnn4-c4ccccc4)CC3)c[nH]c12` [B-19, 3-(4-fluoro-3-(2-oxo-2-(4-(1-phenyl-1H-tetrazol-5-yl)piperazin-1-yl)acetyl)-1H-pyrrolo[2,3-c]pyridin-7-yl)-1,1-dimethylurea] cannot be ordered by EC50: less than 500 nM for the first, less than 500 nM for the second.

With `CN(C)C(=O)C(=O)Nc1ncc(F)c2c(C(=O)C(=O)N3CCN(c4nnnn4-c4ccccc4)CC3)c[nH]c12` [B-20, N^1-(4-fluoro-3-(2-oxo-2-(4-(1-phenyl-1H-tetrazol-5-yl)piperazin-1-yl)acetyl)-1H-pyrrolo[2,3-c]pyridin-7-yl)-N^2,N^2-dimethyloxalamide] the EC50 was less than 500 nM.
